# Assay results published in patent US20250121083A1, “Tumor-Associated Calcium Signal Transducer 2 (TACSTD2) Antibody-Maytansine Conjugates and Methods of Use Thereof” (priority 2021, published 2025).
# How the values were obtained:
# [1] = system: NCI-H292 xenograft model; experiment: NCI-H292 xenograft study; assay type: in vivo, female SCID Beige mice; conditions: 26 mg/kg x 4 doses, i.v.; 8 mice per group
# Text: Methods: For the NCI-H292 study, female SCID Beige mice (8 per group) were inoculated subcutaneously with 5 million NCI-H292 cells in PBS. Treatment began when the tumors reached an average of 116 mm^3. For the NCI-N87 study, female BALB/c nude mice (8 per group) were inoculated subcutaneously with 10 million NCI-N87 cells in a 1:1 solution of PBS:Matrigel. Treatment began when the tumors reached an average of 221 mm^3. […] Two general dosing schedules were used: either test articles were delivered once every 3 wk (arrowheads) or they were delivered two times in a three week period, on days 0 and 7 (arrows). The dosing cycles were repeated twice, so that animals in the first dosing group received a total of 2 doses, while the animals in the second dosing group received a total of 4 doses. The animals were monitored twice weekly for body weight and tumor size. Animals were euthanized when tumors reached 2000 mm^3.
# For the results shown in FIG. 8, CR refers to an individual mouse that has no detectable tumor volume, which could be for only a short time, for example, one observation, or it could be for a longer period. […] The lines in FIG. 8 show the mean tumor volume across all mice in a group. Because 8 mice were used per group, the line shown in FIG. 8 might not go to zero; however, there could still be individual animals that attained CR.
# [2] = system: TACSTD2-positive cell lines Bx-PC-3, NCI-H87, NCI-H292, and MDA-MB-468; experiment: In vitro cytotoxicity, Cell Titer-Glo, 5 d; assay type: cell-based; conditions: 120 h, range over the four tested cell lines, read-out: IC50 concentrations
# Method: The TACSTD2-positive cell lines, Bx-PC-3, […], NCI-H292, and MDA-MB-468 were obtained from the ATCC cell bank. The cells were maintained in RPMI 1640 or DMEM medium (Cellgro) supplemented with 10 or 20% fetal bovine serum (Invitrogen) and Glutamax (Invitrogen). 24 h prior to plating, cells were passaged to ensure log-phase growth. On the day of plating, 5000 cells/well were seeded onto 96-well plates in 100 μL normal growth medium supplemented with 10 IU penicillin and 10 μg/mL streptomycin (Cellgro). […] After 5 d, 100 μL/well of Cell Titer-Glo reagent (Promega) was added, and luminescence was measured using a Molecular Devices SpectraMax M5 plate reader. GraphPad Prism software was used for data analysis.
# [3] = system: MDA-MB-468 cells; experiment: In vitro cytotoxicity, Cell Titer-Glo, 8 d; assay type: cell-based; conditions: Homo sapiens, 192 h
# Method: Methods: The TACSTD2-positive cell line, MDA-MB-468 was obtained from the ATCC cell bank. The cells were maintained in DMEM medium supplemented with 10% fetal bovine serum (Invitrogen), 2× Glutamax (Invitrogen) and 1× antibiotic/antimycotic (Corning). On the day of plating, 1500 cells/well were seeded onto 96-well plates in 100 μL normal growth medium. Cells were treated at various concentrations with 20 μL of diluted analytes (sacituzumab compound 21 ADC or free belotecan payload), and the plates were incubated at 37° C. in an atmosphere of 5% CO2. After 8 d, 100 μL/well of Cell Titer-Glo reagent (Promega) was added, and luminescence was measured using a Molecular Devices SpectraMax M5 plate reader. GraphPad Prism software was used for data analysis.
# [4] = cited from earlier work
molecule,measurement,setting,value
Trodelvy [reference compound],complete responses (CRs),[1],1/8
"COc1cc2cc(c1Cl)N(C)C(=O)C[C@H](OC(=O)[C@H](C)N(C)C(C)=O)[C@]1(C)O[C@H]1[C@H](C)[C@@H]1C[C@@](O)(NC(=O)O1)[C@H](OC)/C=C/C=C(\C)C2 [free maytansine, maytansine]",IC50,[2],0.05 to 0.23 nM
same,IC50,[3],0.77 nM
"DS-1062: Daiichi Sankyo's TROP-2-targeted ADC (conjugate, chains of the INN, looked up, deruxtecan payload, Daiichi Sankyo's TROP-2-targeted ADC) VH: QVQLVQSGAEVKKPGASVKVSCKASGYTFTTAGMQWVRQAPGQGLEWMGWINTHSGVPKYAEDFKGRVTISADTSTSTAYLQLSSLKSEDTAVYYCARSGFGSSYWYFDVWGQGTLVTVSS VL: DIQMTQSPSSLSASVGDRVTITCKASQDVSTAVAWYQQKPGKAPKLLIYSASYRYTGVPSRFSGSGSGTDFTLTISSLQPEDFAVYYCQQHYITPLTFGQGTKLEIK",intestinal toxicity,[4]; 10 mg/kg,toxicity findings in the intestines
same,safety signals in healthy tissues that express TROP-2,"[4]; >10 mg/kg, skin, cornea, oral, esophageal, vaginal mucosa",key adverse safety signals (including necrosis)
